Data published in patent US8546608B2, “Proteasome inhibitors and methods of using the same” (Cephalon, Inc., priority 2003, dated 2013).

Target: T1, 20S Human Erythrocyte Proteasome (HEP) (Homo sapiens, UniProt P20618+P28074)
T1 construct: 20S Human Erythrocyte Proteasome (HEP), purchased from Immatics Biotechnologies Inc; purchased Immatics Biotechnologies Inc., Tübingen, Germany; host or cells: human erythrocytes (natural source)
Assay: Chymotrypsin-like activity of 20S Human Erythrocyte Proteasome (HEP), IC50 determination
Type: biochemical
Details: assay of Example C, inhibition of HEP
Procedure: Assay for Chymotrypsin-like Activity of 20S Human Erythrocyte Proteasome (HEP)
Proteasome chymotrypsin-like activity of compounds of the invention was assayed according to the following procedure.
In 96-well microtiter plates, 20S Human Erythrocyte Proteasome (HEP), purchased from Immatics Biotechnologies Inc., Tübingen, Germany was plated at 0.2 μg/mL (about 0.6 nM catalytic sites) in 0.04% SDS 20 mM Tris buffer. A fluorimetric substrate Suc-LLVY-AMC (succinyl-Leu-Leu-Val-Tyr-7-amido-4-methylcoumarin), purchased from Sigma Inc., St. Louis, Mo., USA was added to a final concentration of 100 μM from a stock solution of 10 mM in dimethylsulfoxide. Reaction volumes were 100 μl per well. […] Proteasome activity was determined under conditions in which substrate hydrolysis increased linearly with time and the change in fluorescence signal was proportional to the concentration of free AMC.
Determination of IC50 Values for HEP and α-Chymotrypsin Inhibitors
Inhibition of the chymotrypsin-like activity of HEP and of bovine α-chymotrypsin was determined by incubating the enzyme with various concentrations of putative inhibitors for 15 minutes at 37° C. (or room temperature for α-chymotrypsin) prior to the addition of substrate. Each experimental condition was evaluated in triplicate, and replicate experiments were performed for the inhibitors described herein.

SMILES | IC50
CCCCC(CC)CCC(=O)N[C@@H](CCCNC(=N)N[N+](=O)[O-])C(=O)N[C@@H](CC(C)C)B1O[C@@H]2C[C@@H]3C[C@@H](C3(C)C)[C@]2(C)O1 (mixture of isomers) [D.3.78, (RS)-4-Ethyloctanamide,N-[(1S)-1-[[[(1R)-1-[(3aS,4S,6S,7aR)-hexahydro-3a,5,5-trimethyl-4,6-methano-1,3,2-benzodioxaborol-2-yl]-3-methylbutyl]amino]carbonyl]-4-[[imino(nitroamino)methyl]amino]butyl]] | < 10 nM
CCCCC(C)CCC(=O)N[C@@H](CCCNC(=N)N[N+](=O)[O-])C(=O)N[C@@H](CC(C)C)B1O[C@@H]2C[C@@H]3C[C@@H](C3(C)C)[C@]2(C)O1 (mixture of isomers) [D.3.87, (RS)-4-Methyloctanamide,N-[(1S)-1-[[[(1R)-1-[(3aS,4S,6S,7aR)-hexahydro-3a,5,5-trimethyl-4,6-methano-1,3,2-benzodioxaborol-2-yl]-3-methylbutyl]amino]carbonyl]-4-[[imino(nitroamino)methyl]amino]butyl]] | < 10 nM
CC(C)C[C@H](NC(=O)[C@H](CCCNC(=N)N[N+](=O)[O-])NC(=O)CN1CCCCC1)B1O[C@@H]2C[C@@H]3C[C@@H](C3(C)C)[C@]2(C)O1 [D.1.9, 2-Piperidin-1-yl-acetamide,N-[(1S)-1-[[[(1R)-1-[(3aS,4S,6S,7aR)-hexahydro-3a,5,5-trimethyl-4,6-methano-1,3,2-benzodioxaborol-2-yl]-3-methylbutyl]amino]carbonyl]-4-[[imino(nitroamino)methyl]amino]butyl]] | < 100 nM
C=CCCCCCCCC(=O)N[C@@H](CCCNC(=N)N[N+](=O)[O-])C(=O)N[C@@H](CC(C)C)B1O[C@@H]2C[C@@H]3C[C@@H](C3(C)C)[C@]2(C)O1 [D.3.68, Dec-9-enamide,N-[(1S)-1-[[[(1R)-1-[(3aS,4S,6S,7aR)-hexahydro-3a,5,5-trimethyl-4,6-methano-1,3,2-benzodioxaborol-2-yl]-3-methylbutyl]amino]carbonyl]-4-[[imino(nitroamino)methyl]amino]butyl]] | < 10 nM
CCCCCCCC/C=C/C(=O)N[C@@H](CCCNC(=N)N[N+](=O)[O-])C(=O)N[C@@H](CC(C)C)B1O[C@@H]2C[C@@H]3C[C@@H](C3(C)C)[C@]2(C)O1 [D.3.69, (E)-Undec-2-enoic acid amide,N-[(1S)-1-[[[(1R)-1-[(3aS,4S,6S,7aR)-hexahydro-3a,5,5-trimethyl-4,6-methano-1,3,2-benzodioxaborol-2-yl]-3-methylbutyl]amino]carbonyl]-4-[[imino(nitroamino)methyl]amino]butyl]] | < 10 nM
Cc1ccc(CSCCC(=O)N[C@@H](CCCNC(=N)N[N+](=O)[O-])C(=O)N[C@@H](CC(C)C)B2O[C@@H]3C[C@@H]4C[C@@H](C4(C)C)[C@]3(C)O2)cc1 [D.3.76, 3-[(4-methylbenzyl)sulfanyl]propanamide,N-[(1S)-1-[[[(1R)-1-[(3aS,4S,6S,7aR)-hexahydro-3a,5,5-trimethyl-4,6-methano-1,3,2-benzodioxaborol-2-yl]-3-methylbutyl]amino]carbonyl]-4-[[imino(nitroamino)methyl]amino]butyl]] | < 10 nM
CC(C)=CCC[C@H](C)CC(=O)N[C@@H](CCCNC(=N)N[N+](=O)[O-])C(=O)N[C@@H](CC(C)C)B1O[C@@H]2C[C@@H]3C[C@@H](C3(C)C)[C@]2(C)O1 [D.3.77, (3S)-3,7-Dimethyl-oct-6-enoic acid amide,N-[(1S)-1-[[[(1R)-1-[(3aS,4S,6S,7aR)-hexahydro-3a,5,5-trimethyl-4,6-methano-1,3,2-benzodioxaborol-2-yl]-3-methylbutyl]amino]carbonyl]-4-[[imino(nitroamino)methyl]amino]butyl]] | < 10 nM
CC(C)C[C@H](NC(=O)[C@H](CCCNC(=N)N[N+](=O)[O-])NC(=O)COc1ccc(Br)cc1)B1O[C@@H]2C[C@@H]3C[C@@H](C3(C)C)[C@]2(C)O1 [D.3.80, 2-(4-Bromophenoxy)-acetamide,N-[(1S)-1-[[[(1R)-1-[(3aS,4S,6S,7aR)-hexahydro-3a,5,5-trimethyl-4,6-methano-1,3,2-benzodioxaborol-2-yl]-3-methylbutyl]amino]carbonyl]-4-[[imino(nitroamino)methyl]amino]butyl]] | < 10 nM
